In a compilation of properties of binary mixtures (doi:10.1021/jp403813g):

Assay: xn = mol fraction of the nth substance listed
Conditions: 100 kPa

CS(C)=O + CCCC[n+]1ccn(C)c1.[Cl-]
Conditions	speed of sound [m/s]
313.15 K, x2 = 0	1442

CS(C)=O + CC[n+]1ccn(C)c1.[Cl-]
x2 = 0
Conditions	speed of sound [m/s]
298.15 K	1496
303.15 K	1472

CCCC[n+]1ccn(C)c1.[Cl-] + CS(C)=O
313.15 K
Conditions	speed of sound [m/s]
x1 = 0.0341	1491
x1 = 0.1122	1569
x1 = 0.2433	1650
x1 = 0.3032	1674
x1 = 0.3705	1696
x1 = 0.4746	1732
x1 = 0.5997	1773
x1 = 0.7115	1794
x1 = 0.843	1816
x1 = 0.9445	1829

CC[n+]1ccn(C)c1.[Cl-] + CS(C)=O
speed of sound [m/s]
Conditions	298.15 K	303.15 K	308.15 K	313.15 K
x1 = 0.0194	–	–	1473	1455
x1 = 0.0453	1517	–	1485	–
x1 = 0.0677	1532	1509	1498	1480
x1 = 0.0984	1551	1527	1516	–
x1 = 0.1236	1563	1539	1527	1508
x1 = 0.1619	1582	1560	1547	1528
x1 = 0.2143	–	1583	1571	1550
x1 = 0.2927	–	–	–	1586
x1 = 0.3737	1675	1652	1638	1618
x1 = 0.4429	1701	1678	1665	1645
x1 = 0.5264	1730	1709	1694	1675
x1 = 0.6072	–	1736	1723	1705
x1 = 0.7477	–	1787	1776	1758
x1 = 0.7986	1828	1812	1801	1783
x1 = 0.8501	–	1833	1822	1804
x1 = 0.8944	1869	1855	1843	1826
x1 = 0.9396	1893	1880	1869	1854
x1 = 0.9694	1910	1894	1883	1868
x1 = 1	1935	1923	1918	1894
x2 = 0.0071	1929	1914	1903	1887
